Like-named read-outs stand apart in the source and are kept apart here.
Key:
[1] = In vivo pharmacokinetic study in ICR mice; settings: plasma; for AUC(0-t): read-out: Area under curve AUC(0-t); for Cmax: read-out: Maximal concentration Cmax
Method: Species: ICR mice, SPF grade. Source: Shanghai Xipuer-Bikai Laboratory Animal Co., Ltd. Number: 3 mice per dosage form.
(§1) 2.1 An appropriate amount of the test sample was accurately weighed, into which 5% DMSO, 10% polyethylene glycol-15 hydroxystearate, 85% normal saline (all in volume percent) were added sequentially, and were fully mixed via vortex or ultrasound, to obtain the dosing solution with a test sample concentration of 0.4 mg/mL for intravenous administration.
as §1, with “2.2” for “2.1”, “1” for “0.4”, “oral gavage” for “intravenous”
Weighing was performed before administration, and the administration amount was calculated according to the body weight. The drug was administered orally by gavage or intravenously.
Before and 0.083 h, 0.25 h, 0.5 h, 1 h, 2 h, 4 h, 6 h, 8 h, 24 h after administration.
Blood was collected via submandibular vein or other suitable means, and approximately 0.03 mL per sample was collected via anticoagulation with heparin sodium. Blood samples were placed on ice after collection and centrifuged to separate plasma within 1 h (centrifugation conditions: centrifugal force of 6800 g, 6 min, 2-8° C.). The collected plasma samples were stored in a −80° C. refrigerator before analysis, and the remaining plasma samples continued to be stored in a −80° C. refrigerator for temporary storage after analysis.
When plot the plasma concentration-time curve according to the detected plasma concentration of the test substance, BLQ (Beneath Limit of Quantification) was recorded as 0. When calculating pharmacokinetic parameters, the concentration before administration was calculated as 0; BLQ (including “No peak”) before Cmax was calculated as 0; BLQ (including “No peak”) after Cmax was not involved in the calculation. Pharmacokinetic parameters, such as AUC(0-t), T1/2, Cmax, etc., were calculated by WinNonlin using the plasma concentration data at different time points.

MAT2a = MAT2a (Homo sapiens (Human), UniProt P31153); assay: MAT2a enzymatic activity test (colorimetric assay); assay type: biochemical; settings: OD620, 150 min reaction, read-out: IC50 against MAT2a
How it was run: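 MAT2a (20 μg/mL working solution) was preincubated 15 min with compound (10-point, 3-fold series from 1 or 10 μM) in Tris/KCl/MgCl2 buffer, pH 8.0. Reaction with 400 μM ATP and 600 μM L-methionine (substrate-mix concentrations) ran 150 min. Phosphate was detected by BIOMOL Green at OD620, with IC50 from log(inhibitor)-response fitting.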

Chain of MAT2a (P31153 whole entry): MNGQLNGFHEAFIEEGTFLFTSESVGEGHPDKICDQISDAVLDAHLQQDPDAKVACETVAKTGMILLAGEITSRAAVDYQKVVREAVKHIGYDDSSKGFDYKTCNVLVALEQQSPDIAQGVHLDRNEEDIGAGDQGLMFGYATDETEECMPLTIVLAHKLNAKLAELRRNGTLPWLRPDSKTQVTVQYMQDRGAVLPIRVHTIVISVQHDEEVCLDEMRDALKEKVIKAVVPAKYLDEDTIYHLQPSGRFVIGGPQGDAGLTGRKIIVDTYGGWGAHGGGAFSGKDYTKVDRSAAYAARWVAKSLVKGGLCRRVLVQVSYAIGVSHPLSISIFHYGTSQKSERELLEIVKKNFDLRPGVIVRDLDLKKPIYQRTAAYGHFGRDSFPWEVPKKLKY

## Nc1c(-c2ccc3nccnc3c2)c(=O)n(-c2ccc(Cl)cc2)c2nc(C(F)(F)F)ccc12 [Example 36]
[1]; IV 2 mg/kg
  Apparent clearance rate Cl: 1.03 mL/min/kg
[1]; mouse, IV 2 mg/kg
  AUC(0-t): 31.7 µg·h/mL
  Cmax: 3540 ng/mL
[1]; mouse, IV 2 mg/kg, read-out: Half life T1/2 (converted)
  half-life: 5.53 h
[1]; mouse, PO 10 mg/kg
  AUC(0-t): 211 µg·h/mL
  Cmax: 18100 ng/mL
[1]; mouse, PO 10 mg/kg, read-out: Half life t1/2 (converted)
  half-life: 9.32 h
[1]; mouse, PO 10 mg/kg vs IV 2 mg/kg, read-out: Bioavailability F %
  bioavailability: 133%
MAT2a
  IC50: 13.6 nM

From patent US20240228491A1, “METHIONINE ADENOSYLTRANSFERASE INHIBITOR, PREPARATION METHOD THEREFOR AND APPLICATION THEREOF” (SCINNOHUB PHARMACEUTICAL CO., LTD., priority 2021, published 2024)
